Source: PubChem BioAssay (NCI)
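Cells were grown in 96-well plates and exposed to each compound for 48 hours at five concentrations; endpoints were interpolated linearly between bracketing concentrations, or set to the highest concentration if not reached. GI50: concentration for 50% inhibition of growth. TGI: concentration producing complete growth inhibition.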

Key:
Experiment in all cases: inhibition of tumour cell growth, NCI panel, 48 h
[1] = system: 786-0 renal
[2] = system: A549 NSCLC
[3] = system: COLO 205 colon
[4] = system: KM12 colon
[5] = system: SF-268 CNS
[6] = system: SN12C renal
[7] = system: A498 renal
[8] = system: HS 578T breast

Row | SMILES | TGI [1] [µM] | TGI [2] [µM] | TGI [3] [µM] | TGI [4] [µM] | TGI [5] [µM] | TGI [6] [µM] | TGI [7] [µM] | GI50 [1] [µM] | GI50 [7] [µM] | GI50 [2] [µM] | GI50 [8] [µM] | TGI [8] [µM] | GI50 [4] [µM] | GI50 [5] [µM] | GI50 [3] [µM] | GI50 [6] [µM]
1 | Nc1cccc(S(=O)(=O)NCC(=O)O)c1 | > 100 | > 100 | > 100 | > 100 | > 100 | > 100 | – | – | – | – | – | – | – | – | – | –
2 | COC1(OC)CC2OC1C1N=NN(C(=O)OC(C)(C)C)C21 (stereo not drawn) | > 100 | > 100 | > 100 | > 100 | > 100 | > 100 | > 100 | – | – | – | – | – | – | – | – | –
3 | CC(=O)OCC1OC(NC(=S)N/N=C2\CC(c3ccccc3)Oc3ccccc32)C(OC(C)=O)C(OC(C)=O)C1OC(C)=O (stereo not drawn) | > 100 | > 100 | > 100 | > 100 | > 100 | > 100 | > 100 | – | – | – | – | – | – | – | – | –
4 | O=C1NC(=O)C(CCC(=O)c2ccc3ccccc3c2)C(=O)N1 | > 100 | > 100 | > 100 | > 100 | > 100 | > 100 | > 100 | – | – | – | – | – | – | – | – | –
5 | CCCC1N2CCCCC2[C@@H]2c3[nH]c4ccccc4c3CCN12 (stereo partly drawn) | > 100 | > 100 | > 100 | – | > 100 | > 100 | > 100 | – | – | – | – | – | – | – | – | –
6 | O=C(CC1(O)C(=O)Nc2ccccc21)c1ccncc1 (stereo not drawn) | > 100 | > 100 | > 100 | – | > 100 | > 100 | > 100 | – | – | – | – | – | – | – | – | –
7 | CCc1ccccc1NC(=O)C1=C(C)NC(C)=C(C(=O)Nc2ccccc2CC)C1c1ccc2c(c1)OCO2 | > 100 | > 100 | > 100 | 50.6 | > 100 | > 100 | 81.5 | – | – | – | – | – | – | – | – | –
8 | COc1ccc(NC(=O)CC(=O)N/N=C/c2ccc(N(CCC#N)S(C)(=O)=O)cc2)cc1 | > 100 | > 100 | > 100 | > 100 | > 100 | > 100 | > 100 | – | – | – | – | – | – | – | – | –
9 | CCN(CC)C(c1ccc(N(C)C)cc1)C(c1ccc(N(C)C)cc1)N(CC)CC (stereo not drawn) | > 73 | > 73 | > 73 | > 73 | > 73 | > 73 | > 73 | – | – | – | – | – | – | – | – | –
10 | CCOC(=O)/C(C#N)=C/c1[nH]c(C(=O)OCc2ccccc2)c(C)c1C | > 100 | > 100 | > 100 | > 100 | > 100 | > 100 | – | – | – | – | – | – | – | – | – | –
11 | Cc1ccc(NC(=O)CC(=O)n2nc(C)c(N=Nc3ccccc3C(=O)O)c2C)cc1 | > 100 | > 100 | > 100 | > 100 | > 100 | > 100 | > 100 | – | – | – | – | – | – | – | – | –
12 | COCCCNC(=O)C1C(=O)C(=O)N(CCCOC)C1=O (stereo not drawn) | > 100 | > 100 | > 100 | – | > 100 | > 100 | > 100 | – | – | – | – | – | – | – | – | –
13 | C/C(O)=C(\N=O)C(=O)Nc1ccc(Cl)cc1Cl | > 100 | > 100 | > 100 | > 100 | > 100 | > 100 | > 100 | – | – | – | – | – | – | – | – | –
14 | C/C(CC(=O)Nc1cc(C)ccc1C)=N\NC(=O)c1ccncc1 | > 100 | > 100 | > 100 | > 100 | > 100 | – | – | – | – | – | – | – | – | – | – | –
15 | NC1=NC(c2ccccc2)CC(c2cc(Cl)ccc2O)=N1 (stereo not drawn) | 32.5 | 29 | 33.7 | 26.9 | 30.8 | 26.9 | 34.5 | – | – | – | – | – | – | – | – | –
16 | O=C(Nc1ccc(-c2nc(N3CCOCC3)c3cccn3n2)cc1)Nc1cccnc1 | 1.98 | > 100 | – | 16.7 | 87.6 | – | 0.328 | 0.178 | 0.0475 | 0.244 | 0.0545 | 0.416 | 0.162 | 0.248 | – | –
17 | COc1ccc2nc3c(C(=O)NCCN(C)C)cccc3nc2c1 | > 100 | > 100 | 22.9 | > 100 | 48.5 | 22.5 | 7.54 | – | – | – | – | – | – | – | – | –
18 | NC(=O)COC(=O)c1c(Cl)nc2sccn12 | 36 | > 100 | > 100 | > 100 | > 100 | > 100 | > 100 | – | – | – | – | – | – | – | – | –
19 | CCC[CH2][Sn]1([CH2]CCC)[O]C(=O)CN=Cc2c(ccc3ccccc23)[O]1 | 1.81 | 3.4 | 1.47 | 2.28 | 1.18 | 1.39 | > 100 | 0.487 | 1.55 | 1.74 | – | – | 0.888 | 0.351 | 0.401 | 0.374
20 | CCCn1c(=S)sc2c1nc(C)n1c(Nc3ccccc3)nnc21 | 49.2 | > 100 | 47.3 | – | – | > 100 | 14.1 | 4.3 | 2.52 | 6.18 | 3.55 | 36 | – | – | 17 | 4.63
21 | NC(=S)N1N=C2c3ccccc3CC[C@@H]2[C@@H]1c1ccccc1 | 50.5 | > 60.2 | 16.8 | 31 | 49.5 | 17.3 | > 83.8 | – | – | – | – | – | – | – | – | –
22 | CCOC1Oc2ccc(C)cc2C(=O)/C1=C\Nc1ccc(C(N)=O)cc1 (stereo not drawn) | 30.4 | > 100 | > 100 | 34.3 | > 100 | 38.8 | – | 16.3 | – | 33.3 | 22.8 | 64.4 | 16.6 | 44 | 8.52 | 17.6
23 | N#CSC1CCCCNC1=O (stereo not drawn) | 32.6 | 60 | 30.2 | 31.3 | 26.2 | 30.8 | – | – | – | – | – | 50.4 | – | – | – | –
24 | O=C1CCC2(c3ccccc3)Nc3ccncc3N12 (stereo not drawn) | > 10 | > 10 | – | > 10 | > 10 | > 10 | – | – | – | – | – | > 10 | – | – | – | –
25 | Nc1c(-c2ccc(Cl)cc2)[n+]([O-])c2ccccc2[n+]1[O-] | > 100 | > 100 | > 100 | > 100 | > 100 | > 100 | > 100 | – | – | – | – | – | – | – | – | –
26 | Cn1c2ccccc2c2ccc3c(c21)C(=O)c1ccccc1C3=O | 47.3 | > 100 | 82 | > 100 | 66.6 | 73.1 | – | – | – | – | – | 46.6 | – | – | – | –
